Assay results: patent US12351582B2, “Aurora kinase inhibitors and uses thereof” (WIGEN BIOMEDICINE TECHNOLOGY (SHANGHAI) CO., LTD., priority 2019, dated 2025)
Values belong to the molecule of their own block, whether it stands above or below them.

Assays:
Aurora-A = biological target: T1, Aurora-A (Homo sapiens, UniProt O14965); test: Aurora kinase activity assay (Caliper mobility shift), Aurora A; assay type: biochemical; details: for IC50: recombinant Aurora kinase, FAM labeled peptide substrate
T1 sequence (O14965 1-403): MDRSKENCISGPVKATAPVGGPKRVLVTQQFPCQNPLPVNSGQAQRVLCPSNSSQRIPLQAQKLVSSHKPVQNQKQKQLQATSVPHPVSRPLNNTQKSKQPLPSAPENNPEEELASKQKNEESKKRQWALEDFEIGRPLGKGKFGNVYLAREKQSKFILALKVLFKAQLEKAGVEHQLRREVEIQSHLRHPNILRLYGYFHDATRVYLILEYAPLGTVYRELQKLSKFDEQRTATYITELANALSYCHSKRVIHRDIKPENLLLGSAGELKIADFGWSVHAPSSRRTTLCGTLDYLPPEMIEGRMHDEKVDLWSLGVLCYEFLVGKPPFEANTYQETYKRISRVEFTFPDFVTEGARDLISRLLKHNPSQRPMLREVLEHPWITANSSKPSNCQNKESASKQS
Method: (§1) The Caliper mobility shift assay was used to measure compound activity towards aurora kinase. 10 different concentrations of compounds were prepared by three-fold serial dilutions. Recombinant Aurora kinases in kinase buffer (20 mM HEPES, pH 7.5, 0.01% Triton X-100) were incubated with compounds for 10 minutes at room temperature. FAM labeled peptide substrates were subsequently added to initiate the reaction at 25° C. Conversion rates were measured by caliper after the reactions were terminated. […] Data were normalized to that of the vehicle control, and percentage of inhibition and IC50 were calculated.

Aurora-B = Aurora-B (Homo sapiens, UniProt Q96GD4); test: Aurora kinase activity assay (Caliper mobility shift), Aurora B; assay type: biochemical; details: recombinant Aurora kinase, FAM labeled peptide substrate
Aurora-B, sequence (Q96GD4 whole entry): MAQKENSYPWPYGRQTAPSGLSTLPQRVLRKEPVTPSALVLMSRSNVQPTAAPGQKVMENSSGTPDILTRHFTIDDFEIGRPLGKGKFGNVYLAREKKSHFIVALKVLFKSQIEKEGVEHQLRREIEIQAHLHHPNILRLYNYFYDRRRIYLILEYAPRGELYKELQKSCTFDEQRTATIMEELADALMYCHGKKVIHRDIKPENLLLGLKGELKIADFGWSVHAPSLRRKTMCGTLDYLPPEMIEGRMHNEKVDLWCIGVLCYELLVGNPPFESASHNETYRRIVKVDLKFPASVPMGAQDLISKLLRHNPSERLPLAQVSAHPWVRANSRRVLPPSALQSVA
Method: as §1

H1975 cells = test: H1975 proliferation assay; assay type: cell-based; details: Homo sapiens, NCI-H1975; 72 hours incubation, cell survival through ATP quantification
Method: Cells were allowed to attach overnight and compounds were added to the cells for a further incubation of 72 hours. […] of CTL was added afterwards to measure cell survival through ATP quantification.

H69 xenograft = test: In vivo anti-tumor growth in H69 mouse xenografts; design: species or system nude mouse; details: for RTV (relative tumor volume, Vt/V0) / T/C / TGI (%) / Body weight (g) D1 / Tumor volume (mm^3) D1 / Body weight (g) D21 / Tumor volume (mm^3) D21: H69 xenograft, bid*21, oral; for Body weight (g) D1 / Tumor volume (mm^3) D1: D1 first day of treatment; for Body weight (g) D21 / Tumor volume (mm^3) D21: D21 last day of treatment
Method: (§2) Cells were passaged and harvested by trypsinization. 1×10^7 H69 cells were implanted in the left armpit of nude mouse. […] Tumor volume and body weight were measured every other day. Mice were sacrificed on day 21 of treatment. Relative tumor volume (RTV) and tumor growth (T/C), and tumor growth inhibition (TGI) were calculated and analyzed statistically.

H1975 xenograft = test: In vivo anti-tumor growth in H1975 mouse xenografts; design: species or system nude mice
Method: as §2, with “8×10^6” for “1×10^7 H69”, “mice.” for “mouse.”, “monitored” for “measured”, “analyzed.” for “analyzed statistically.”

[1] = Dosage 60, qd*21, oral gavage, D1 first day of treatment
[2] = Dosage 60, qd*21, oral gavage, D21 last day of treatment

SMILES: CC1CC(Cc2nc(Nc3nccs3)ccc2F)(C(=O)O)CCN1Cc1cccc(Cl)c1F (racemic) [Compound 1, 1-(3-chloro-2-fluorobenzyl)-4-((3-fluoro-6-(thiazol-2-ylamino)pyridin-2-yl)methyl)-2-methylpiperidine-4-carboxylic acid]
- IC50 (Aurora-A): 0.64 nM
- IC50 (Aurora-B): 20 nM
- IC50 (H1975 cells): 22 nM

SMILES: C[C@@H]1C[C@](Cc2nc(Nc3nccs3)ccc2F)(C(=O)O)CCN1Cc1cccc(Cl)c1F [Compound 1-1, (2R,4R)-1-(3-chloro-2-fluorobenzyl)-4-((3-fluoro-6-(thiazol-2-ylamino)pyridin-2-yl)methyl)-2-methylpiperidine-4-carboxylic acid]
- IC50 (Aurora-A): 0.4 nM
- potency in words (comment on Table 2) (Aurora-A; towards Aurora-A, Aurora-B and H1975): more potent than its racemic mixture
- H69 tumor growth in words (comment on Table 4) (H69 xenograft; 2.5, 5 and 10 mg/kg twice daily, compared to LY-3295668): blocks H69 tumor growth in a dose dependent manner with markedly improved efficacy compared to LY-3295668
- RTV (relative tumor volume, Vt/V0) (H69 xenograft; 2.5 mg/kg): 0.65
- T/C (H69 xenograft; 2.5 mg/kg): 20%
- TGI (%) (H69 xenograft; 2.5 mg/kg): 111.16%
- Body weight (g) D1 (H69 xenograft; 2.5 mg/kg): 15.99 g
- Tumor volume (mm^3) D1 (H69 xenograft; 2.5 mg/kg): 287.46 mm^3
- Body weight (g) D21 (H69 xenograft; 2.5 mg/kg): 16.73 g
- Tumor volume (mm^3) D21 (H69 xenograft; 2.5 mg/kg): 180.58 mm^3
- RTV (relative tumor volume, Vt/V0) (H69 xenograft; 5 mg/kg): 0.33
- T/C (H69 xenograft; 5 mg/kg): 10%
- TGI (%) (H69 xenograft; 5 mg/kg): 120.31%
- Body weight (g) D1 (H69 xenograft; 5 mg/kg): 15.91 g
- Tumor volume (mm^3) D1 (H69 xenograft; 5 mg/kg): 284.84 mm^3
- Body weight (g) D21 (H69 xenograft; 5 mg/kg): 16.01 g
- Tumor volume (mm^3) D21 (H69 xenograft; 5 mg/kg): 90.43 mm^3
- RTV (relative tumor volume, Vt/V0) (H69 xenograft; 10 mg/kg): 0.37
- T/C (H69 xenograft; 10 mg/kg): 11%
- TGI (%) (H69 xenograft; 10 mg/kg): 120.34%
- Body weight (g) D1 (H69 xenograft; 10 mg/kg): 16.16 g
- Tumor volume (mm^3) D1 (H69 xenograft; 10 mg/kg): 287.92 mm^3
- Body weight (g) D21 (H69 xenograft; 10 mg/kg): 16.19 g
- Tumor volume (mm^3) D21 (H69 xenograft; 10 mg/kg): 93.16 mm^3
- IC50 (Aurora-B): 16 nM
- IC50 (H1975 cells): 12 nM

SMILES: CC1CC(Cc2nc(Nc3nccs3)ccc2F)(C(=O)O)CCN1Cc1ccnc(Cl)c1F (stereo not shown) [Compound 3, 1-((2-chloro-3-fluoropyridin-4-yl)methyl)-4-((3-fluoro-6-(thiazol-2-ylamino)pyridin-2-yl)methyl)-2-methylpiperidine-4-carboxylic acid]
- IC50 (Aurora-A): 0.73 nM
- IC50 (Aurora-B): 321 nM
- IC50 (H1975 cells): 195 nM

SMILES: CC1CC(Cc2nc(Nc3nccs3)ccc2F)(C(=O)O)CCN1Cc1cccc2c1OC(F)(F)O2 (stereo not shown) [Compound 7, 1-((2,2-difluorobenzo[d][1,3]dioxol-4-yl)methyl)-4-((3-fluoro-6-(thiazol-2-ylamino)pyridin-2-yl)methyl)-2-methylpiperidine-4-carboxylic acid]
- IC50 (Aurora-A): 1.1 nM
- IC50 (Aurora-B): 822 nM
- IC50 (H1975 cells): 99 nM

SMILES: CC1CC(Cc2nc(Nc3nccs3)ccc2F)(C(=O)O)CCN1C(C)c1cccc(Cl)c1F (stereo not shown) [Compound 9, 1-(1-(3-chloro-2-fluorophenyl)ethyl)-4-((3-fluoro-6-(thiazol-2-ylamino)pyridin-2-yl)methyl)-2-methylpiperidine-4-carboxylic acid]
- IC50 (Aurora-A): 0.98 nM
- IC50 (Aurora-B): 126 nM
- IC50 (H1975 cells): 81 nM

Second part, led by results:

- IC50 (Aurora-A): 0.74 nM
- IC50 (Aurora-B): 15 nM
SMILES: [2H]C([2H])(c1cccc(Cl)c1F)N1CCC(Cc2nc(Nc3nccs3)ccc2F)(C(=O)O)CC1C (stereo not shown) [Compound 13, 1-((3-chloro-2-fluorophenyl)methyl-d2)-4-((3-fluoro-6-(thiazol-2-ylamino)pyridin-2-yl)methyl)-2-methylpiperidine-4-carboxylic acid]
- RTV (relative tumor volume, Vt/V0) (H1975 xenograft; Dosage 60, qd*21, oral gavage): 4.72
- TGI (%) (H1975 xenograft; Dosage 60, qd*21, oral gavage): 81.07%
- Body weight (g) D1 (H1975 xenograft; [1]): 17.82 g
- Tumor volume (mm^3) D1 (H1975 xenograft; [1]): 82.50 mm^3
- Body weight (g) D21 (H1975 xenograft; [2]): 19.00 g
- Tumor volume (mm^3) D21 (H1975 xenograft; [2]): 373.74 mm^3
- T/C (H1975 xenograft; Dosage 60, qd*21, oral gavage, TRTV/CRTV × 100): 24.11%
- activity in vivo in words (comment on Table 3) (H1975 xenograft; compared with LY-3295668): shows greater activity in vivo
- IC50 (H1975 cells): 25 nM

- IC50 (Aurora-A): 1.42 nM
- IC50 (Aurora-B): 435 nM
SMILES: CC1(C)CC(Cc2nc(Nc3nccs3)ccc2F)(C(=O)O)CCN1Cc1cccc(Cl)c1F (stereo not shown) [Compound 20, 1-(3-chloro-2-fluorobenzyl)-4-((3-fluoro-6-(thiazol-2-ylamino)pyridin-2-yl)methyl)-2,2-dimethylpiperidine-4-carboxylic acid]
- IC50 (H1975 cells): 156 nM

- IC50 (Aurora-A): 1.21 nM
- IC50 (Aurora-B): 1140 nM
SMILES: Cc1cc(Nc2ccc(F)c(CC3(C(=O)O)CCN(C(=O)c4cccc(Cl)c4F)C(C)C3)n2)n[nH]1 (stereo not shown) [Compound 22, 1-(3-chloro-2-fluorobenzoyl)-4-((3-fluoro-6-((5-methyl-1H-pyrazol-3-yl)amino)pyridin-2-yl)methyl)-2-methylpiperidine-4-carboxylic acid]
- IC50 (H1975 cells): 155 nM
